Laboratory results from US9771345B2, “Coferons and methods of making and using them” (Cornell University, priority 2009, dated 2017).
Where a name gives a salt, the structure may show the parent alone.

Molecular target: T1, recombinant human tryptase, beta, from lung (Homo sapiens, UniProt P20231)
T1 construct: purchased Promega or Enzo Life Sciences G5631 or BML-SE418
Experiment: Inhibition of tryptase activity by coferons (Boc-Gln-Ala-Arg-AMC fluorescence)
Assay type: biochemical
Settings: coferon monomer alone; 1 nM tryptase
Protocol: Stock solutions of recombinant human tryptase, beta, from lung (Promega: catalog number G5631, or Enzo Life Sciences: catalog number BML-SE418) were made at 30 μM, in solution with 50 μM heparin sulfate and 500 mM NaCl. Coferon tryptase inhibitor stock solutions were made at 50 mM in DMSO. Drug plates were made at 5× the final concentration in assay buffer (50 mM HEPES, 150 mM NaCl, 100 μM EDTA, pH 7.4, 0.02% Tween-20). A final concentration of 1 nM tryptase was used. When required, drugs were diluted in assay buffer immediately before use in 10-fold serial dilutions. […] The Softmax Pro (Molecular Devices) and Graphpad prism software were used to determine Vmax, and concentration-response curve IC50s, respectively.

T1 sequence (P20231 31-275): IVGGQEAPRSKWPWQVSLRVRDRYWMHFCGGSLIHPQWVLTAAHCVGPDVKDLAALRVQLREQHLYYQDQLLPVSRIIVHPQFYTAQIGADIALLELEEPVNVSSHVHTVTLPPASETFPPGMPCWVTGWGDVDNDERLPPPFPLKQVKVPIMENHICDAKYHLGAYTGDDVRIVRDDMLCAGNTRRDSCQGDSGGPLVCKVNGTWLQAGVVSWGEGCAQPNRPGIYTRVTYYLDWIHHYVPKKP

SMILES | IC50
NCc1cccc(C2CCN(C(=O)/C=C/c3ccc(O)c(O)c3)CC2)c1 [Example 39, (E)-1-(4-(3-(aminomethyl)phenyl)piperidin-1-yl)-3-(3,4-dihydroxyphenyl)prop-2-en-1-one hydrochloride] | 4.3 µM
NCc1cccc(C2CCN(C(=O)c3cccc4cc(B(O)O)ccc34)CC2)c1 [Example 34, (5-(4-(3-(amino methyl)phenyl)piperidine-1-carbonyl)napthalen-2-yl)boronic acid] | 0.48 µM
NCc1cccc(C2CCN(C(=O)c3cccc4cc(O)c(O)cc34)CC2)c1 [Example 40, (4-(3-(aminomethyl)phenyl)piperidin-1-yl)(6,7-dihydroxynaphthalen-1-yl)methanone] | 1.2 µM
NCc1cccc(C2CCN(C(=O)c3cccc4ccc(B(O)O)cc34)CC2)c1 [Example 35, (8-(4-(3-(aminomethyl)phenyl)piperidine-1-carbonyl)naphthalen-2-yl)boronic acid] | 15 µM
NCc1cccc(C2CCN(C(=O)Cc3cccc(B(O)O)c3)CC2)c1 [Example 36, (3-(2-(4-(3-(aminomethyl)phenyl)piperidin-1-yl)-2-oxoethyl)phenyl)boronic acid] | 8.15 µM
NCc1cccc(C2CCN(C(=O)Cc3ccc(B(O)O)cc3)CC2)c1 [Example 37, (4-(2-(4-(3-(aminomethyl)phenyl)piperidin-1-yl)-2-oxoethyl)phenyl)boronic acid] | 1.05 µM
NCc1cccc(C2CCN(C(=O)c3cccc(OCC(=O)N4C[C@@H](O)[C@@H](O)C4)c3)CC2)c1 [Example 50, 2-(3-(4-(3-(aminomethyl)phenyl)piperidine-1-carbonyl)phenoxy)-1-((3S,4R)-3,4-dihydroxypyrrolidin-1-yl)ethanone] | 7.5 µM
